Results: patent US10383880B2 (Reset Therapeutics, Inc., priority 2012, dated 2019)

Each compound was assayed on Per2-dLuc U2OS reporter cells (assay: Per2 assay for evaluating the potency of test compounds (high-throughput circadian assay)). Conditions: Homo sapiens, U2OS, stable U2OS reporter cells harboring Per2-dLuc; luminescence monitored over 4-5 days at 35° C.
Format: cell-based
Method in brief: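 Compounds (0.5% DMSO final) were added right after serum-shock synchronization of Per2-dLuc U2OS reporter cells in minimal medium containing 1.0 mM beetle luciferin. Reporter luminescence was followed at 35 °C for 4–5 days to extract rhythm period, amplitude and phase, and EC50 values were obtained from these.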

In order of falling EC50:
1. CC(O)(CN(C1(C)CCC1)S(C)(=O)=O)Cn1c2ccc(F)cc2c2cc(F)ccc21 (centres unmarked) [Compound 187, N-(3-(3,6-Difluoro-9H-carbazol-9-yl)-2-hydroxy-2-methylpropyl)-N-(1-methylcyclobutyl)methanesulfonamide]  2750 nM
2. CC(O)(CN(C1(C)CC1)S(C)(=O)=O)Cn1c2ccc(F)cc2c2cc(F)ccc21 (centres unmarked) [Compound 189, N-(3-(3,6-Difluoro-9H-carbazol-9-yl)-2-hydroxy-2-methylpropyl)-N-(1-methylcyclopropyl)methanesulfonamide]  1290 nM
3. COC1CCCC(N(CC(O)Cn2c3ccc(F)cc3c3cc(F)ccc32)S(C)(=O)=O)C1 (centres unmarked) [Compound 198, N-(3-(3,6-Difluoro-9H-carbazol-9-yl)-2-hydroxypropyl)-N-(3-methoxycyclohexyl)methanesulfonamide]  1230 nM
4. CC1CC(N(CC(C)(O)Cn2c3ccc(F)cc3c3cc(F)ccc32)S(C)(=O)=O)C1 (centres unmarked) [Compound 191, N-(3-(3,6-Difluoro-9H-carbazol-9-yl)-2-hydroxy-2-methylpropyl)-N-(3-methylcyclobutyl)methanesulfonamide]  1190 nM
5. CC(O)(CN(C1(C)CCCC1)S(C)(=O)=O)Cn1c2ccc(F)cc2c2cc(F)ccc21 (centres unmarked) [Compound 197, N-(3-(3,6-Difluoro-9H-carbazol-9-yl)-2-hydroxy-2-methylpropyl)-N-(1-methylcyclopentyl)methanesulfonamide]  873 nM
6. CC1CCCC1N(CC(C)(O)Cn1c2ccc(F)cc2c2cc(F)ccc21)S(C)(=O)=O (centres unmarked) [Compound 192, N-(3-(3,6-Difluoro-9H-carbazol-9-yl)-2-hydroxy-2-methylpropyl)-N-(2-methylcyclopentyl)methanesulfonamide]  686 nM
7. CC1CCCC1N(CC(O)Cn1c2ccc(F)cc2c2cc(F)ccc21)S(C)(=O)=O (centres unmarked) [Compound 193A, N-(3-(3,6-Difluoro-9H-carbazol-9-yl)-2-hydroxypropyl)-N-(2-methylcyclopentyl)methanesulfonamide]  427 nM
8. CC1CN(CC(C)(O)Cn2c3ccc(F)cc3c3cc(F)ccc32)S(=O)(=O)C1 (centres unmarked) [Compound 195, 2-(3-(3,6-Difluoro-9H-carbazol-9-yl)-2-hydroxy-2-methylpropyl)-4-methylisothiazolidine-1,1-dioxide]  254 nM
9. CC1CC(N(CC(O)Cn2c3ccc(F)cc3c3cc(F)ccc32)S(C)(=O)=O)C1 (centres unmarked) [Compound 190, N-(3-(3,6-Difluoro-9H-carbazol-9-yl)-2-hydroxypropyl)-N-(3-methylcyclobutyl)methanesulfonamide]  211 nM
10. CC1(N(CC(O)Cn2c3ccc(F)cc3c3cc(F)ccc32)S(C)(=O)=O)CCCC1 (centres unmarked) [Compound 196, N-(3-(3,6-Difluoro-9H-carbazol-9-yl)-2-hydroxypropyl)-N-(1-methylcyclopentyl)methanesulfonamide]  149 nM
11. CC1(N(CC(O)Cn2c3ccc(F)cc3c3cc(F)ccc32)S(C)(=O)=O)CC1 (centres unmarked) [Compound 188, N-(3-(3,6-Difluoro-9H-carbazol-9-yl)-2-hydroxypropyl)-N-(1-methylcyclopropyl)methanesulfonamide]  147 nM
12. CC1(N(CC(O)Cn2c3ccc(F)cc3c3cc(F)ccc32)S(C)(=O)=O)CCC1 (centres unmarked) [Compound 186, N-(3-(3,6-Difluoro-9H-carbazol-9-yl)-2-hydroxypropyl)-N-(1-methylcyclobutyl)methanesulfonamide]  83 nM
13. CC1CN(CC(O)Cn2c3ccc(F)cc3c3cc(F)ccc32)S(=O)(=O)C1 (centres unmarked) [Compound 194, 2-(3-(3,6-Difluoro-9H-carbazol-9-yl)-2-hydroxypropyl)-4-methylisothiazolidine-1,1-dioxide]  78 nM
14. O=S1(=O)N(CC(O)Cn2c3ccc(F)cc3c3cc(F)ccc32)CCC1(F)F (centres unmarked) [Compound 185, 2-(3-(3,6-Difluoro-9H-carbazol-9-yl)-2-hydroxypropyl)-5,5-difluoroisothiazolidine-1,1-dioxide]  45 nM
